Measurements as given in patent US11254666B2, “Compound as GLS1 inhibitor” (MEDSHINE DISCOVERY INC., priority 2017, dated 2022).

What was measured:
GLS1 = target: T1, GLS1 (Homo sapiens, UniProt O94925); test: Activity test of compounds in GLS1 coupling reaction system; format: biochemical; conditions: 2 nM GLS1, 4.5 mM L-glutamine, 1 hour pre-incubation at 23° C.
T1 sequence (O94925 55-669): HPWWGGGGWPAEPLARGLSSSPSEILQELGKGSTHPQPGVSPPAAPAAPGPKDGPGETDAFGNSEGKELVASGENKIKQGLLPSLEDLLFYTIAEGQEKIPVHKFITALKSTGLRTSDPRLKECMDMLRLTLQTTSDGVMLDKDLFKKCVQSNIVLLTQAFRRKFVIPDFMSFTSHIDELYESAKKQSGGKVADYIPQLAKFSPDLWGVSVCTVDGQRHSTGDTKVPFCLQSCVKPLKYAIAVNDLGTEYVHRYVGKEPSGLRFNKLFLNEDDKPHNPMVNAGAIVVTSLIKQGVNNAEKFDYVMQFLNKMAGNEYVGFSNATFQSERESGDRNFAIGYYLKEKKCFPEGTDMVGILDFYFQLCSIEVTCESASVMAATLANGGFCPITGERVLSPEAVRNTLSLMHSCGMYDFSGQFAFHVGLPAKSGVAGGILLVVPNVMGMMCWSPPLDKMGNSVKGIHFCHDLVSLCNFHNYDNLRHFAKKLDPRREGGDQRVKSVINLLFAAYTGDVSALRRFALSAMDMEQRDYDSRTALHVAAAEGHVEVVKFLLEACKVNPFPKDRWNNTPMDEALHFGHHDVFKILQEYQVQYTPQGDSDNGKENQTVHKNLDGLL
Experimental: Experimental Example 1: Activity Test of Compounds in GLS1 Coupling Reaction System
Preparation of Reaction Reagents: Relevant reagents should be prepared on the day of the experiment: Preparation of 1× assay buffer The final concentration of each component in the final experimental buffer was: 50 mM Tris-HCl pH 8.0, 0.25 mM EDTA, 150 mM K2HPO4, 0.1 mg/mL BSA, 1 mM DTT, 0.01% Triton X-100 Preparation of 2× experimental component solutions: The reagents were taken out and placed on ice to melt naturally for later use; 1× assay buffer was used to prepare “solution A” (solution A contains: L-glutamine, NAD+(nicotinamide adenine dinucleotide) and GLDH (glutamic acid dehydrogenase)). The final concentrations of each component in the final experimental reaction systemwere 4.5 mM L-glutamine, 2 mM NAD+ 4 U/mL GLDH. 1× assay buffer was used to prepare “solution B” - - - 2× enzyme solution (solution B contains GLS1 enzyme). The final concentration of GLS1 in the final experimental reaction system was 2 nM. Experimental Steps: The experiment plates are prepared by Labcyte ECHO before the experiment, which contain the compounds gradient concentrations and the corresponding DMSO solution: The experimental plates were taken out, and 20 μL of solution B (enzyme GLS1 solution) was added to columns 2 to 23 of the experimental plate, then 20 μL assay buffer was added to columns 1 and 24 as Min control in the experimental system. Then the experimental plates were centrifuged at 1000 rpm for 30 seconds; and sealed the membrane, and the plates were incubated at 23° C. for 1 hour. After the incubation of 1 hour, 20 μL of solution A was added to columns 1 to 24 of the experimental plates (ie, Samples were added to the whole plate). The experimental plates were centrifuged at 1000 rpm for 30 seconds. The experimental plates were placed on the SpectraMax 340PC, and the plates were continuously read for 20 minutes in dynamic mode (the reading interval was set to 1 minute).

[1] = Evaluation of compounds pharmacokinetics in mice; format: in vivo; conditions: mouse, plasma, female C57BL/6 mice
Experimental: Experimental Example 2: Evaluation of Compounds Pharmacokinetics
Experimental purpose: To test the pharmacokinetics of compounds in mice
C57BL/6 mice (female, 7-9 weeks old, Shanghai SLAC)
Experimental procedure: C57BL/6 mice (C57BL/6) were administered a clear solution obtained by dissolving test compounds via tail vein injection and intragastric administration (overnight fast, 7-9 weeks old). After administration of the test compounds, the intravenous group was at 0.0833, 0.25, 0.5, 1, 2, 4, 6, 8 and 24 h, and the gavage group was at 0.0833, 0.25, 0.5, 1, 2, 4, 6, 8 and 24, blood was collected from the mandibular vein and centrifuged to obtain plasma. LC-MS/MS method was used to determine blood drug concentration, and WinNonlin™ Version 6.3 pharmacokinetic software was used to calculate the relevant pharmacokinetic parameters by non-compartment model linear logarithmic trapezoid method.

IC50 (GLS1) [nM]	Compound	also measured
200 to 1000	CO[C@H](C(=O)Nc1nnc(NC2CCN(c3cccnn3)CC2)s1)c1cccnc1 [Example 16]	
< 200	CO[C@H](C(=O)Nc1nnc(NC2CCN(c3cccnn3)CC2)s1)c1cc(OC(F)(F)F)ccc1F [Example 17]	bioavailability ([1]; po, intragastric vs tail vein): 91.3%; half-life ([1]; po, tail vein injection and intragastric administration, route and dose not given, read-out: T1/2 (half-life) (converted)): 2.52 h; AUC(0-inf) ([1]; route and dose not given): 26.1 µM·h; Cmax ([1]; route and dose not given, read-out: Cmax (maximum concentration)): 11.6 µM

Continued, molecule first:

Compound	IC50 (GLS1) [nM]	also measured
O=C(Cc1cccnc1)Nc1nnc(NC2CCN(c3cccnn3)CC2)s1 [Example 5]	200 to 1000	
O=C(Cc1cc(Cl)ccc1Cl)Nc1nnc(NC2CCN(c3cccnn3)CC2)s1 [Example 7]	200 to 1000	
O=C(Cc1cc(Cl)ccc1F)Nc1nnc(NC2CCN(c3cccnn3)CC2)s1 [Example 8]	200 to 1000	
O=C(Cc1cc(OC(F)(F)F)ccc1F)Nc1nnc(NC2CCN(c3cccnn3)CC2)s1 [Example 9]	200 to 1000	
